According to patent US20250270227A1, “CAMPTOTHECIN DERIVATIVE, AND PHARMACEUTICAL COMPOSITION AND USE THEREOF” (SIMCERE ZAIMING PHARMACEUTICAL CO., LTD., priority 2021, published 2025):
Where two headings read alike, the source gives them in different places.

Legend:
[1] = Plasma protein binding rate (equilibrium dialysis); format: in vitro ADME, mouse; conditions: pH 7.4
Method: (§1) The protein binding rates of the compounds of the present disclosure in human and mouse plasma were determined by the following experimental method.
(§2) • 1. Human plasma (BioIVT), CD-1 mouse plasma (BiolVT) • 2. Na2HPO4 (Sigma S5136-500G) • 3. NaH2PO4 (Sigma 53139-500G) • 4. NaCl (Sigma S5886-IKG) • 5. 96-well equilibrium dialysis plate (HTDialysis LLC, Gales Ferry, CT, HTD96B) and equilibrium dialysis membrane (MWCO 12-14K, 1101) • 6. Positive control compound warfarin • 7. ABI QTrap 5500 liquid chromatography-mass spectrometry
(§3) • 1. Preparation of a buffer with a concentration of 100 mM sodium phosphate and 150 mM NaCl: An alkaline solution with a concentration of 14.2 g/L Na2HPO4 and 8.77 g/L NaCl was prepared with ultrapure water, and an acidic solution with a concentration of 12.0 g/L NaH2PO4 and 8.77 g/L NaCl was prepared with ultrapure water. Then the alkaline solution was titrated to pH 7.4 with the acidic solution to prepare a buffer with a concentration of 100 mM sodium phosphate and 150 mM NaCl. • 2. Preparation of dialysis membrane: The dialysis membrane was soaked in ultrapure water for 60 min to separate the membrane into two pieces, then soaked in 20% ethanol for 20 min, and finally soaked in a buffer used for dialysis for 20 min. • 3. Preparation of plasma: The frozen plasma was quickly thawed at room temperature, and then centrifuged at 3220 g for 10 min at 4° C. to remove clots, and the supernatant was collected into a new centrifugal tube. The pH of the plasma was determined and recorded, and the plasma with pH of 7-8 was used. • 4. Preparation of compound-containing plasma samples: The 10 mM stock solution of the compound of the present invention or the positive control compound was diluted with DMSO to obtain a 200 μM working solution. To 597 μl of human or mouse plasma was added 3 μl of 200 μM compound working solution to obtain a plasma sample with a final concentration of 1 μM. • 5. […]
(§4) The peak areas of the compound on the buffer side and the plasma side were determined. […]

[2] = target: hERG potassium ion channel (Homo sapiens (Human), UniProt Q12809); assay: hERG inhibitory activity (automated patch clamp, CHO cell line stably expressing hERG); format: cell-based
Method: The inhibition of hERG activity by the compounds of the present disclosure was determined by the following experimental method.
A CHO cell line stably expressing hERG ion channel was purchased from B′SYS GmbH (Switzerland). The cells were cultured in F-12 (HAM) medium containing 10% FBS buffer, 100 U/mL penicillin-streptomycin, 100 μg/mL hygromycin and 100 μg/mL G418. Trypsin substitute TrypLE™ Express was used for digestion and passage, passaging three times per week and maintaining about 80% confluence.
Iii. Preparation of Intracellular/Extracellular Fluid and Preparation of Solution of Compound to be Tested
• 1) NMDG 60 standard extracellular fluid: 80 mM sodium chloride, 60 mM NMDG, 4 mM potassium chloride, 2 mM calcium chloride, 1 mM magnesium chloride, 5 mM polyglucose, 10 mM HEPES, pH adjusted to 7.4 with HCl, osmotic pressure 289 mOsm/kg; • 2) NMDG 60 cell sealing solution: 80 mM sodium chloride, 60 mM NMDG, 4 mM potassium chloride, 10 mM calcium chloride, 1 mM magnesium chloride, 5 mM polyglucose, 10 mM HEPES, pH adjusted to 7.4 with HCl, osmotic pressure 313 mOsm/kg; • 3) Chip filling solution: 140 mM sodium chloride, 4 mM potassium chloride, 5 mM polyglucose, 10 mM HEPES, pH adjusted to 7.4 with NaOH, osmotic pressure 289 mOsm/kg; • 4) Standard extracellular fluid: 140 mM sodium chloride, 4 mM potassium chloride, 2 mM calcium chloride, 1 mM magnesium chloride, 5 mM polyglucose, 10 mM HEPES, pH adjusted to 7.4 with NaOH, osmotic pressure 298 mOsm/kg.
KF110 intracellular fluid: 10 mM EGTA, 10 mM HEPES, 10 mM potassium chloride, 10 mM sodium chloride, 110 mM potassium fluoride, pH adjusted to 7.2 with KOH, osmotic pressure greater than 280 mOsm/kg.
• 1) The compound to be tested was dissolved in DMSO and prepared into a stock solution with a final concentration of 10 mM. • 2) The stock solution was subjected to gradient dilution with DMSO as a solvent at a ratio of 1:3 into solutions with other three intermediate concentrations (mM): 3.33, 1.11 and 0.37, respectively. • 3) Before the start of the experiment, the gradient solution of the compound to be tested was diluted again with the extracellular fluid according to a ratio of 1:500 into a series of working solutions with final concentrations of: 20, 6.66, 2.22 and 0.74 (μM), respectively, while the 60 μM working solution was diluted from 10 mM stock solution according to a ratio of 3:500. […]

[3] = Plasma protein binding rate (equilibrium dialysis); format: in vitro ADME, human; conditions: pH 7.4
Method: as §1, §2, §3, §4

[4] = CD-1 mouse plasma, 1 μM, equilibrium dialysis 6 h, 37° C., read-out: % Mouse plasma protein binding rate (converted)

Chain of hERG potassium ion channel (Q12809 whole entry): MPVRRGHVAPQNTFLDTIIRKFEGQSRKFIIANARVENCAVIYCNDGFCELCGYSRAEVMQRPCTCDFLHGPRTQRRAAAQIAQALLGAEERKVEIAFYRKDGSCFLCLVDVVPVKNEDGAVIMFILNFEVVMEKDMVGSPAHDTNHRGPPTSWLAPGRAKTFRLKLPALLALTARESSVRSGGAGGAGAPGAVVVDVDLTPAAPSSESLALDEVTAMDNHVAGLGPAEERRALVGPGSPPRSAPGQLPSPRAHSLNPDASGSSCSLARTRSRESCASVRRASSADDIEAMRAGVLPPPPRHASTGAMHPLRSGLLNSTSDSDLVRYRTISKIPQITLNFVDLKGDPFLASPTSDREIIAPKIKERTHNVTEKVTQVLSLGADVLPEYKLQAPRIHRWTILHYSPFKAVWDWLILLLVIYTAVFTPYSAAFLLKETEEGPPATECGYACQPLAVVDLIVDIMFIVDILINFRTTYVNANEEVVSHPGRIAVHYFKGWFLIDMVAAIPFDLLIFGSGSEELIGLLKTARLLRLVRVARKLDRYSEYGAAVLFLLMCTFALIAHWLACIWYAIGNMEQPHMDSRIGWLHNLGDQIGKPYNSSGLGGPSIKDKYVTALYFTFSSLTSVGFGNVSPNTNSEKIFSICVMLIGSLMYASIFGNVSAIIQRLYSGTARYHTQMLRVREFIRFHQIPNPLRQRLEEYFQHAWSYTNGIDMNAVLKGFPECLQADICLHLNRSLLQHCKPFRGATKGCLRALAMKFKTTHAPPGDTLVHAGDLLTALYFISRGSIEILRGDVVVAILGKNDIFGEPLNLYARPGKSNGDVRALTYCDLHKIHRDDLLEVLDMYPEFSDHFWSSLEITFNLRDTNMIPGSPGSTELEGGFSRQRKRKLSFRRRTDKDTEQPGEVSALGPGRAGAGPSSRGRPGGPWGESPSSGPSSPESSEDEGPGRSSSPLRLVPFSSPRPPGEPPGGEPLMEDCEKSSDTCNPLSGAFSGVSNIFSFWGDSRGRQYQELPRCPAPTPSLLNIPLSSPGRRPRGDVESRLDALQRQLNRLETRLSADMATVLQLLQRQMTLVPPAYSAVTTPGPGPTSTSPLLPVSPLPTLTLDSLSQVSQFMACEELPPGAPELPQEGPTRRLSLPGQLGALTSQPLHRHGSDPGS

Row | Compound | fraction unbound at 6 h, 1 μM [1, 4] | IC50 [2] | fraction unbound at 6 h, 1 μM ([3]; human plasma, 1 μM, equilibrium dialysis 6 h, 37° C., read-out: % Human plasma protein binding rate (converted)) | IC50 ([2]; read-out: hERG potassium ion channel inhibitory activity IC50, CHO-hERG, SyncroPatch 384i, 0.37-30 μM) | fraction unbound at 6 h, 1 μM ([1]; CD-1, mouse, plasma) | fraction unbound at 6 h, 1 μM ([3]; human, plasma)
1 | CC[C@@]1(O)C(=O)OCc2c1cc1n(c2=O)Cc2c-1nc1cc3c(cc1c2CNC(=O)C(O)C1CC1)OCO3 (single isomer, unassigned) [Compound 14-P1] | 0.363 | > 30 µM | 0.106 | – | – | –
2 | CC[C@@]1(O)C(=O)OCc2c1cc1n(c2=O)Cc2c-1nc1cc3c(cc1c2CNC(=O)C(O)C1CC1)OCO3 (single isomer, unassigned) [Compound 14-P2] | – | – | – | > 30 µM | – | –
3 | CC[C@@]1(O)C(=O)OCc2c1cc1n(c2=O)Cc2c-1nc1cc3c(c(F)c1c2CNC(=O)[C@@H](O)C1CC1)OCO3 (single isomer, unassigned) [Compound 37-P1] | – | > 30 µM | – | – | 0.327 | 0.128
4 | [2H]C1([2H])Oc2cc3nc4c(c(CNC(=O)C(O)C5CC5)c3cc2O1)Cn1c-4cc2c(c1=O)COC(=O)[C@]2(O)CC (stereo partly drawn) [Compound 39, 2-cyclopropyl-N-(((S)-7-ethyl-7-hydroxy-8,11-dioxo-7,8,11,13-tetrahydro-10H-[1,3]dioxolo[4,5-g]pyrano[3′,4′:6,7]indolizino[1,2-b]quinolin-14-yl-2,2-d2)methyl)-2-hydroxyacetamide] | 0.342 | > 30 µM | – | – | – | 0.081
